Measurements as given in US20140039031A1, “PHARMACEUTICAL FORMULATIONS OF ACETYL-11-KETO-B-BOSWELLIC ACID, DIINDOLYLMETHANE, AND CURCUMIN FOR PHARMACEUTICAL APPLICATIONS” (Dispersol Technologies. LLC, priority 2011, published 2014).

Experiments:
[1] = Bioavailability (pharmacokinetic) study of AKBA formulations, oral gavage; format: in vivo, Sprague-Dawley rats; settings: rat, dose equivalent to 50 mg/kg AKBA, * statistically significant
Method: A study was performed to evaluate the pharmacokinetic parameters of AKBA compositions. For the study, adult male Sprague-Dawley rats (275-300 grams, 63-67 days) were caged individually and maintained on a normal rodent chow diet with free access to water. Rats were randomly divided into groups of 4 rats with each group receiving one formulation. Prior to dosing, each formulation was reconstituted in deionised water. The formulations were administered as a dose equivalent to 50 mg/kg AKBA. Each formulation was delivered by 1 mL oral gavage via a pharyngeal tube such that each group of 4 rats received a different formulation. Each formulation was administered to dose AKBA at a concentration of 15 mg/l mL to prevent spontaneous release through the pyloric sphincter (volumetric dose below 4 mL/kg body weight).
The administered formulations were: […]
The catheters of the rats were flushed daily with 300 μL of 50 U/mL heparinized normal saline. Blood samples of approximately 300 μL were collected from the jugular vein catheter at 0, 0.5, 1, 1.5, 2, 2.5, 3, 3.5, 4, 4.5, 5, 5.5, 6 and 8 hours after dosing using a 1 mL syringe and attached […] needle. Blood was slowly extracted into the needle through the catheter. The blood samples were placed into preheparinized 1.5 mL microcentrifuge tubes. Withdrawn blood was replaced with equal volumes of heparinized saline by injecting through the jugular vein catheter. The bioavailability of the API was then determined by monitoring the API levels in the blood over time.

[2] = Solubility enhancement of AKBA by surfactants (UV-Visible); format: physicochemical; settings: pH 6.8 phosphate buffer; 100 mg AKBA in 10 mL; shaken at least 72 hours at 37° C.; 0.20 micron filter
Method: Evaluation of Solubility Enhancement Capability of Surfactants for Solubilizing AKBA.
100 mg of AKBA was placed in a 10 mL cuvette, followed by the desired amount of surfactant to be studied to give the desired ratio of materials. Powder surfactants were measured directly into the cuvette in the amounts of 10 mg, 25 mg and 50 mg. Liquid surfactants were added by making a solution of 1.25 gm of surfactant in 250 ml of buffer, and then adding 2 ml, 5 ml, or 10 ml of the buffer solution to add 10 mg, 25 mg and 50 mg of the surfactant. A pH 6.8 phosphate buffer was added as needed to bring the volume up to 10 mL. After all material was added to the cuvette, the cuvette was sealed, sonicated for 2 hours on two separate occasions and then shaken for at least 72 hours at 37° C. The resulting material was filtered through a 0.20 micron filter and analyzed by UV-Visible spectroscopy to determine the AKBA content.

[3] = Solubility enhancement of AKBA by combination of polymer carriers and surfactants (UV-Visible); format: physicochemical; settings: pH 6.8 phosphate buffer; 20 mg AKBA in 10 mL; shaken at least 72 hours at 37° C.; 0.45 micron filter
Method: Evaluation of Solubility Enhancement Capability of the Combination of Polymer Carriers (Thermal Binders) and Surfactants for Solubilizing AKBA.
20 mg of AKBA was placed in a 10 mL cuvette, followed by the desired amount of polymer carriers and/or surfactants to be studied to give the desired ratio of materials. A pH 6.8 phosphate buffer was added as needed to bring the volume up to 10 mL. […] The resulting material was filtered through a 0.45 micron filter and analyzed by UV-Visible spectroscopy to determine the AKBA content.

[4] = Solubility enhancement of AKBA by polymer carriers (thermal binders) (UV-Visible); format: physicochemical; settings: pH 6.8 phosphate buffer; 20 mg AKBA in 10 mL; shaken at least 72 hours at 37° C.; 0.45 micron filter
Method: Evaluation of Solubility Enhancement Capability of Polymer Carriers (Thermal Binders) for Solubilizing AKBA.
20 mg of AKBA was placed in a 10 mL cuvette, followed by the desired amount of polymer carriers to be studied to give the desired ratio of materials. A pH 6.8 phosphate buffer was added as needed to bring the volume up to 10 mL. After all material was added to the cuvette, the cuvette was sealed, sonicated for 2 hours on two separate occasions and then shaken for at least 72 hours at 37° C. The resulting material was filtered through a 0.45 micron filter and analyzed by UV-Visible spectroscopy to determine the AKBA content.

[5] = Dissolution testing under non-sink conditions (USP XXIX method A enteric dissolution test); format: physicochemical; settings: pH 6.8 buffer, read from FIG. 6
Method: Dissolution tests were performed with a dissolution apparatus (VK 7000 Dissolution Tester with a VK 8000 Autosampler). The testing was carried out according to a published method (USP XXIX method A enteric dissolution test); non-sink conditions were maintained throughout the testing using 1 L of final neutral media. The solution of 0.1N HCl (pH of 1.2) with a formulation present was stirred at 50 rpm for 2 hours and then the solution was converted to 0.2M Phosphate Buffer (pH of 6.8) and stirring continued up to 12 hours. At times of 60, 120, 125, 135, 150, 165, 180, 210, 240, 300, 360, 480, and 720 minutes, three×5 mL samples were removed and analyzed for soluble AKBA.

## CC(=O)O[C@@H]1CC[C@@]2(C)[C@@H](CC[C@]3(C)[C@@H]2C(=O)C=C2[C@@H]4[C@@H](C)[C@H](C)CC[C@]4(C)CC[C@]23C)[C@@]1(C)C(=O)O [AKBA, acetyl-11-keto-β-boswellic acid]
[1]
  Average of AUC: 0.71* ± 0.24 μg-hr/mL
  Average of Cmax: 0.35* ± 0.12 μg/mL
  Average of Tmax: 4.75* ± 1.55 hours
  Average of t1/2: 2.30 ± 1.43 h
[2]
  AKBA solubility, mcg/mL Buffer (Material - Surfactants): 0.01 µg/mL
[3]
  AKBA solubility, mcg/mL Buffer (Material - Combination of Surfactants and Polymer Carriers): 8.46 µg/mL
[4]
  AKBA solubility, mcg/mL Buffer (Material - Polymer Carriers): 7.27 µg/mL
[5]
  peak solubility: about 2 μg/ml
